Experiments:
Type in all cases: in vivo
barnyardgrass [1] = assay: Test Example 1: herbicidal effects in preemergence treatment under submerged conditions; conditions: dose 2.52 g/a
Excerpt: (§1) Test on the Herbicidal Effects in Preemergence Treatment on Weeds Under Submerged Conditions
(§2) Alluvial soil was put in 1/30000-are styrol cups and admixed with water so that it was submerged at a depth of 4 cm. In each cup, seeds of barnyardgrass, bulrush and ducksalad were sown together, and rice seedlings at the 2.5-leaf stage were transplanted. On the same day as the seeding, emulsifiable concentrates containing compounds of the present invention formulated in accordance with Formulation Example 2 were applied to the water surfaces at predetermined doses after diluted with water. The cups were placed in a greenhouse at 25 to 30° C. to grow the plants. Three weeks after the application, the herbicidal effects against various plants were determined on the following evaluation scale.
(§3) 5 mortality of 90% or above (nearly complete death)
(§4) 4 mortality of at least 70% and less than 90%
(§5) 3 mortality of at least 40% and less than 70%
(§6) 2 mortality of at least 20% and less than 40%
(§7) 1 mortality of at least 5% and less than 20%
(§8) 0 mortality of less than 5% (almost ineffective)
(§9) A: barnyardgrass, B: bulrush, C: ducksalad, D: large crabgrass, E: giant foxtail, F: wild oat, G: water foxtail, H: Italian ryegrass, I: velvetleaf, J: common ragweed, K: redroot pigweed, L: common lambsquater, M: posumbu knotweed, N: common chickweed, O: beadstraw, a: transplanted rice, b: corn, c: soybean, d: direct-seeded rice, e: wheat, f: sugar beet.
(§10) The doses (g/a) represents the amounts in g per 1 are (a) applied after adjustment of concentration adjustment.

bulrush [2] = assay: as above; conditions: dose 2.52 g/a
Excerpt: as §1, §2, §3, §4, §5, §6, §7, §8, §9, §10

ducksalad [3] = assay: as above; conditions: dose 2.52 g/a
Excerpt: as §1, §2, §3, §4, §5, §6, §7, §8, §9, §10

transplanted rice = assay: Test Example 1: preemergence treatment under submerged conditions, effect on crop; conditions: dose 2.52 g/a
Excerpt: as §1, §2, §3, §4, §5, §6, §7, §8, §9, §10

barnyardgrass [4] = assay: Test Example 2: herbicidal effects during the vegetation period under submerged conditions; conditions: treatment during the vegetation period under submerged conditions; dose 2.52 g/a
Experimental: (§11) Test on the Herbicidal Effects on Weeds During the Vegetation Period Under Submerged Conditions
(§12) Alluvial soil was put in 1/30000-are styrol cups and admixed with water so that it was submerged at a depth of 4 cm. In each cup, seeds of barnyardgrass, bulrush and ducksalad were sown together, and the cups were placed in a greenhouse at 25 to 30° C. to grow the plants. When the barnyardgrass, bulrush and ducksalad reached the 1- or 2-leaf stage, emulsifiable concentrates containing compounds of the present invention formulated in accordance with Formulation Example 2 were applied to the water surfaces at predetermined doses after diluted with water. Three weeks after the application, the herbicidal effects against various plants were determined on the same evaluation scale as in Test Example 1.
as §9, §10

bulrush [5] = assay: as above; conditions: treatment during the vegetation period under submerged conditions; dose 2.52 g/a
Experimental: as §11, §12, §9, §10

ducksalad [6] = assay: as above; conditions: treatment during the vegetation period under submerged conditions; dose 2.52 g/a
Experimental: as §11, §12, §9, §10

Italian ryegrass [7] = assay: Test Example 3: herbicidal effects in soil treatment; conditions: dose 3.2 g/a
Excerpt: (§13) Test on the Herbicidal Effects in Soil Treatment
(§14) Sterilized diluvial soil was put in plastic boxes with a length of 21 cm, a width of 13 cm and a depth of 7 cm, and seeds of barnyardgrass, large crabgrass, giant foxtail, wild oat, blackgrass, velvetleaf, common ragweed, redroot pigweed, common lambsquater, posumbu knotweed, common chickweed corn, soybean, rice, wheat and sugar beet were sown in spots and covered with an about 1.5 cm-thick soil layer. Emulsifiable concentrates containing compounds of the present invention formulated in accordance with Formulation Example 2 were uniformly applied to the soil surfaces at predetermined doses through a small sprayer after dilute with water. Three weeks after the application, the herbicidal effects against various plants were determined on the same evaluation scale as in Test Example 1.
as §9, §10

barnyardgrass [8] = assay: as above; conditions: dose 3.2 g/a
Excerpt: as §13, §14, §9, §10

common chickweed [9] = assay: as above; conditions: dose 3.2 g/a
Excerpt: as §13, §14, §9, §10

common lambsquater [10] = assay: as above; conditions: dose 3.2 g/a
Excerpt: as §13, §14, §9, §10

common ragweed [11] = assay: as above; conditions: dose 3.2 g/a
Excerpt: as §13, §14, §9, §10

giant foxtail [12] = assay: as above; conditions: dose 3.2 g/a
Excerpt: as §13, §14, §9, §10

large crabgrass [13] = assay: as above; conditions: dose 3.2 g/a
Excerpt: as §13, §14, §9, §10

posumbu knotweed [14] = assay: as above; conditions: dose 3.2 g/a
Excerpt: as §13, §14, §9, §10

redroot pigweed [15] = assay: as above; conditions: dose 3.2 g/a
Excerpt: as §13, §14, §9, §10

water foxtail [16] = assay: as above; conditions: dose 3.2 g/a
Excerpt: as §13, §14, §9, §10

Italian ryegrass [17] = assay: Test Example 4: herbicidal effect in foliage treatment; conditions: dose 3.2 g/a, three weeks after the application
Excerpt: (§15) Test on the Herbicidal Effect in Foliage Treatment
as §14, with “chickweed,” for “chickweed”, “The boxes were placed in a greenhouse at 25 to 30° C. to grow the plants. After 14 days, emulsifiable” for “Emulsifiable”, “foliage” for “soil surfaces”, “diluted” for “dilute”
as §9, §10

barnyardgrass [18] = assay: as above; conditions: dose 3.2 g/a, three weeks after the application
Excerpt: as §15
as §14, with “chickweed,” for “chickweed”, “The boxes were placed in a greenhouse at 25 to 30° C. to grow the plants. After 14 days, emulsifiable” for “Emulsifiable”, “foliage” for “soil surfaces”, “diluted” for “dilute”
as §9, §10

common chickweed [19] = assay: as above; conditions: dose 3.2 g/a, three weeks after the application
Excerpt: as §15
as §14, with “chickweed,” for “chickweed”, “The boxes were placed in a greenhouse at 25 to 30° C. to grow the plants. After 14 days, emulsifiable” for “Emulsifiable”, “foliage” for “soil surfaces”, “diluted” for “dilute”
as §9, §10

common lambsquater [20] = assay: as above; conditions: dose 3.2 g/a, three weeks after the application
Excerpt: as §15
as §14, with “chickweed,” for “chickweed”, “The boxes were placed in a greenhouse at 25 to 30° C. to grow the plants. After 14 days, emulsifiable” for “Emulsifiable”, “foliage” for “soil surfaces”, “diluted” for “dilute”
as §9, §10

common ragweed [21] = assay: as above; conditions: dose 3.2 g/a, three weeks after the application
Excerpt: as §15
as §14, with “chickweed,” for “chickweed”, “The boxes were placed in a greenhouse at 25 to 30° C. to grow the plants. After 14 days, emulsifiable” for “Emulsifiable”, “foliage” for “soil surfaces”, “diluted” for “dilute”
as §9, §10

giant foxtail [22] = assay: as above; conditions: dose 3.2 g/a, three weeks after the application
Excerpt: as §15
as §14, with “chickweed,” for “chickweed”, “The boxes were placed in a greenhouse at 25 to 30° C. to grow the plants. After 14 days, emulsifiable” for “Emulsifiable”, “foliage” for “soil surfaces”, “diluted” for “dilute”
as §9, §10

large crabgrass [23] = assay: as above; conditions: dose 3.2 g/a, three weeks after the application
Excerpt: as §15
as §14, with “chickweed,” for “chickweed”, “The boxes were placed in a greenhouse at 25 to 30° C. to grow the plants. After 14 days, emulsifiable” for “Emulsifiable”, “foliage” for “soil surfaces”, “diluted” for “dilute”
as §9, §10

posumbu knotweed [24] = assay: as above; conditions: dose 3.2 g/a, three weeks after the application
Excerpt: as §15
as §14, with “chickweed,” for “chickweed”, “The boxes were placed in a greenhouse at 25 to 30° C. to grow the plants. After 14 days, emulsifiable” for “Emulsifiable”, “foliage” for “soil surfaces”, “diluted” for “dilute”
as §9, §10

redroot pigweed [25] = assay: as above; conditions: dose 3.2 g/a, three weeks after the application
Excerpt: as §15
as §14, with “chickweed,” for “chickweed”, “The boxes were placed in a greenhouse at 25 to 30° C. to grow the plants. After 14 days, emulsifiable” for “Emulsifiable”, “foliage” for “soil surfaces”, “diluted” for “dilute”
as §9, §10

velvetleaf = assay: as above; conditions: dose 3.2 g/a, three weeks after the application
Excerpt: as §15
as §14, with “chickweed,” for “chickweed”, “The boxes were placed in a greenhouse at 25 to 30° C. to grow the plants. After 14 days, emulsifiable” for “Emulsifiable”, “foliage” for “soil surfaces”, “diluted” for “dilute”
as §9, §10

water foxtail [26] = assay: as above; conditions: dose 3.2 g/a, three weeks after the application
Excerpt: as §15
as §14, with “chickweed,” for “chickweed”, “The boxes were placed in a greenhouse at 25 to 30° C. to grow the plants. After 14 days, emulsifiable” for “Emulsifiable”, “foliage” for “soil surfaces”, “diluted” for “dilute”
as §9, §10

Compound: CCOC(=O)N(c1ccccc1CN1COC(C)C(C)C1=O)S(=O)(=O)C(F)(F)F (stereo not shown) [II-71]
- A: barnyardgrass, herbicidal effect (evaluation scale 0-5) (barnyardgrass [1]): 5 (mortality of 90% or above (nearly complete death))
- B: bulrush, herbicidal effect (evaluation scale 0-5) (bulrush [2]): 5 (mortality of 90% or above (nearly complete death))
- C: ducksalad, herbicidal effect (evaluation scale 0-5) (ducksalad [3]): 5 (mortality of 90% or above (nearly complete death))
- a: transplanted rice, effect on crop (evaluation scale 0-5) (transplanted rice): 0 (mortality of less than 5% (almost ineffective))
- A: barnyardgrass, herbicidal effect (evaluation scale 0-5) (barnyardgrass [4]): 5 (mortality of 90% or above (nearly complete death))
- B: bulrush, herbicidal effect (evaluation scale 0-5) (bulrush [5]): 5 (mortality of 90% or above (nearly complete death))
- C: ducksalad, herbicidal effect (evaluation scale 0-5) (ducksalad [6]): 5 (mortality of 90% or above (nearly complete death))
- H: Italian ryegrass, herbicidal effect (evaluation scale 0-5) (Italian ryegrass [7]): 2 (mortality of at least 20% and less than 40%)
- A: barnyardgrass, herbicidal effect (evaluation scale 0-5) (barnyardgrass [8]): 5 (mortality of 90% or above (nearly complete death))
- N: common chickweed, herbicidal effect (evaluation scale 0-5) (common chickweed [9]): 3 (mortality of at least 40% and less than 70%)
- L: common lambsquater, herbicidal effect (evaluation scale 0-5) (common lambsquater [10]): 0 (mortality of less than 5% (almost ineffective))
- J: common ragweed, herbicidal effect (evaluation scale 0-5) (common ragweed [11]): 5 (mortality of 90% or above (nearly complete death))
- E: giant foxtail, herbicidal effect (evaluation scale 0-5) (giant foxtail [12]): 4 (mortality of at least 70% and less than 90%)
- D: large crabgrass, herbicidal effect (evaluation scale 0-5) (large crabgrass [13]): 5 (mortality of 90% or above (nearly complete death))
- M: posumbu knotweed, herbicidal effect (evaluation scale 0-5) (posumbu knotweed [14]): 3 (mortality of at least 40% and less than 70%)
- K: redroot pigweed, herbicidal effect (evaluation scale 0-5) (redroot pigweed [15]): 5 (mortality of 90% or above (nearly complete death))
- G: water foxtail, herbicidal effect (evaluation scale 0-5) (water foxtail [16]): 5 (mortality of 90% or above (nearly complete death))
- H: Italian ryegrass, herbicidal effect (Italian ryegrass [17]): 1 (mortality of at least 5% and less than 20%)
- A: barnyardgrass, herbicidal effect (barnyardgrass [18]): 5 (mortality of 90% or above (nearly complete death))
- N: common chickweed, herbicidal effect (common chickweed [19]): 4 (mortality of at least 70% and less than 90%)
- L: common lambsquater, herbicidal effect (common lambsquater [20]): 0 (mortality of less than 5% (almost ineffective))
- J: common ragweed, herbicidal effect (common ragweed [21]): 3 (mortality of at least 40% and less than 70%)
- E: giant foxtail, herbicidal effect (giant foxtail [22]): 4 (mortality of at least 70% and less than 90%)
- D: large crabgrass, herbicidal effect (large crabgrass [23]): 4 (mortality of at least 70% and less than 90%)
- M: posumbu knotweed, herbicidal effect (posumbu knotweed [24]): 0 (mortality of less than 5% (almost ineffective))
- K: redroot pigweed, herbicidal effect (redroot pigweed [25]): 0 (mortality of less than 5% (almost ineffective))
- I: velvetleaf, herbicidal effect (velvetleaf): 5 (mortality of 90% or above (nearly complete death))
- G: water foxtail, herbicidal effect (water foxtail [26]): 5 (mortality of 90% or above (nearly complete death))

Reference: US20120029187A1, “HALOALKYLSULFONANILIDE DERIVATIVE” (Nissan Chemical Industries, Ltd., priority 2009, published 2012)
